“And” between values parts separate entries of the source, which are not always exact repeats. Identical values can stand only once.
How the values were obtained:
hCA I = hCA I (Homo sapiens, UniProt P00915); assay: stopped-flow CO2 hydrase assay, hCA I; conditions: for Ki ratio CA I/CA IX: selectivity for hCA IX over hCA I
Protocol: (§1) An Applied Photophysics stopped-flow instrument was used for assaying the CA catalysed CO2 hydration activity[28]. […] The uncatalysed rates were determined in the same manner and subtracted from the total observed rates. Stock solutions of inhibitors (10 mM) were prepared in distilled-deionised water with 10% of DMSO and dilutions up to 0.01 µM were done thereafter with the assay buffer. The inhibitor and enzyme solutions were preincubated together for 15 min (standard assay at room temperature) prior to assay, to allow for the formation of the E-I complex. The inhibition constants were obtained by non-linear least-squares methods using PRISM 3 and the Cheng–Prusoff equation and represent the mean from at least three different determinations.

hCA II = hCA II (Homo sapiens, UniProt P00918); assay: stopped-flow CO2 hydrase assay, hCA II; conditions: for Ki ratio CA II/CA IX: selectivity for hCA IX over hCA II
Protocol: as §1

hCA IV = hCA IV (Homo sapiens, UniProt P22748); assay: stopped-flow CO2 hydrase assay, hCA IV; conditions: for Ki ratio CA IV/CA IX: selectivity for hCA IX over hCA IV
Sequence of hCA IV (P22748 19-312): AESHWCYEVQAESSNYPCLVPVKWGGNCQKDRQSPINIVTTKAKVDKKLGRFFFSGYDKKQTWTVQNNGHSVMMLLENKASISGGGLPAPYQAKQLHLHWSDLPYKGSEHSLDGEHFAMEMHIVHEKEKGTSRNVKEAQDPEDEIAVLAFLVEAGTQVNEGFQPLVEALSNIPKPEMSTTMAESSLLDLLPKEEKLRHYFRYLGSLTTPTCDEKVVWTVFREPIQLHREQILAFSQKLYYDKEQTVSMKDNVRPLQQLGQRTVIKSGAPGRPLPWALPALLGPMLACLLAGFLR
Protocol: as §1

hCA IX = hCA IX (Homo sapiens, UniProt Q16790); assay: stopped-flow CO2 hydrase assay, hCA IX; conditions: mean from three assays, errors ±5–10%
Protocol: as §1

Sequence of hCA I (P00915 whole entry): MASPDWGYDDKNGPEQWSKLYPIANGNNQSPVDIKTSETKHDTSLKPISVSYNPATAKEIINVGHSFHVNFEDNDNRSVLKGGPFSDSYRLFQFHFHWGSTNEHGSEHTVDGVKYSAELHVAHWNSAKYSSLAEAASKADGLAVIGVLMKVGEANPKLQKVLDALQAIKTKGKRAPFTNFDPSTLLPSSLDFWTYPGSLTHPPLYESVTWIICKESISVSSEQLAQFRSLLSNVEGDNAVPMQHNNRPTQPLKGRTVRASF

SMILES	melting point	Ki (hCA I)	Ki (hCA II)	Ki (hCA IV)	Ki (hCA IX)	Ki ratio CA I/CA IX (hCA I)	Ki ratio CA II/CA IX (hCA II)	Ki ratio CA IV/CA IX (hCA IV)
O=C1CCCc2nc(Nc3ccc(S(=O)(=O)Nc4ccccc4)cc3)ncc21 [Compound 1, 4-((5-Oxo-5,6,7,8-tetrahydroquinazolin-2-yl)amino)-N-phenylbenzenesulfonamide]	281 to 283 °C	89.1 µM	41.2 µM	> 100 µM	480 nM			
COc1ccc(NS(=O)(=O)c2ccc(Nc3ncc4c(n3)CCCC4=O)cc2)cc1 [Compound 2, N-(4-methoxyphenyl)-4-((5-oxo-5,6,7,8-tetrahydroquinazolin-2-yl)amino)benzenesulfonamide]	233 to 235 °C	> 100 µM	50.3 µM	> 100 µM	460 nM			
O=C1CCCc2nc(Nc3ccc(S(=O)(=O)Nc4ccc([N+](=O)[O-])cc4)cc3)ncc21 [Compound 3, N-(4-nitrophenyl)-4-((5-oxo-5,6,7,8-tetrahydroquinazolin-2-yl)amino)benzenesulfonamide]	264 to 266 °C	> 100 µM	> 100 µM	> 100 µM	420 nM			
Cc1ccc(NS(=O)(=O)c2ccc(Nc3ncc4c(n3)CCCC4=O)cc2)cc1 [Compound 4, 4-((5-Oxo-5,6,7,8-tetrahydroquinazolin-2-yl)amino)-N-(4-tolyl)benzenesulfonamide]	272 to 274 °C	> 100 µM	> 100 µM	> 100 µM	1040 nM	> 96 and >100 [CA I/CA IX]^b>96	> 96 and >100 [CA II/CA IX]^b>96	> 96 and >100 [CA IV/CA IX]^b>96
O=C1CC(c2ccccc2)Cc2nc(Nc3ccc(S(=O)(=O)Nc4ccccc4)cc3)ncc21 (centres unmarked) [Compound 5, 4-((5-Oxo-7-phenyl-5,6,7,8-tetrahydroquinazolin-2-yl)amino)-N-phenylbenzenesulfonamide]	111 to 113 °C	> 100 µM	> 100 µM	> 100 µM	450 nM	> 222		> 222
COc1ccc(NS(=O)(=O)c2ccc(Nc3ncc4c(n3)CC(c3ccccc3)CC4=O)cc2)cc1 (centres unmarked) [Compound 6, N-(4-methoxyphenyl)-4-((5-oxo-7-phenyl-5,6,7,8-tetrahydroquinazolin-2-yl)amino)benzenesulfonamide]	103 to 105 °C	34 µM	11.5 µM	> 100 µM	1730 nM	19.6	6.6	> 57.8
O=C1CC(c2ccccc2)Cc2nc(Nc3ccc(S(=O)(=O)Nc4ccc([N+](=O)[O-])cc4)cc3)ncc21 (centres unmarked) [Compound 7, N-(4-nitrophenyl)-4-((5-oxo-7-phenyl-5,6,7,8-tetrahydroquinazolin-2-yl)amino)benzenesulfonamide]	118 to 120 °C	> 100 µM	67.5 µM	> 100 µM	1330 nM	> 75.2	50.7	> 75.2
Cc1ccc(NS(=O)(=O)c2ccc(Nc3ncc4c(n3)CC(c3ccccc3)CC4=O)cc2)cc1 (centres unmarked) [Compound 8, 4-((5-Oxo-7-phenyl-5,6,7,8-tetrahydroquinazolin-2-yl)amino)-N-(4-tolyl)benzenesulfonamide]	83 to 85 °C	46.1 µM	13 µM	> 100 µM	15700 nM			
CC1(C)CC(=O)c2cnc(Nc3ccc(S(=O)(=O)Nc4ccccc4)cc3)nc2C1 [Compound 9, 4-((7,7-Dimethyl-5-oxo-5,6,7,8-tetrahydroquinazolin-2-yl)amino)-N-phenylbenzenesulfonamide]	215 to 217 °C	70.5 µM	7.4 µM	91.1 µM	47300 nM			
COc1ccc(NS(=O)(=O)c2ccc(Nc3ncc4c(n3)CC(C)(C)CC4=O)cc2)cc1 [Compound 10, 4-((7,7-Dimethyl-5-oxo-5,6,7,8-tetrahydroquinazolin-2-yl)amino)-N-(4-methoxyphenyl)benzenesulfonamide]	210 to 212 °C	24.7 µM	5.1 µM	78.1 µM	48100 nM			
CC1(C)CC(=O)c2cnc(Nc3ccc(S(=O)(=O)Nc4ccc([N+](=O)[O-])cc4)cc3)nc2C1 [Compound 11, 4-((7,7-Dimethyl-5-oxo-5,6,7,8-tetrahydroquinazolin-2-yl)amino)-N-(4-nitrophenyl)benzenesulfonamide]	264 to 266 °C	62 µM	6.9 µM	> 100 µM	> 100000 nM			
Cc1ccc(NS(=O)(=O)c2ccc(Nc3ncc4c(n3)CC(C)(C)CC4=O)cc2)cc1 [Compound 12, 4-((7,7-Dimethyl-5-oxo-5,6,7,8-tetrahydroquinazolin-2-yl)amino)-N-(p-tolyl)benzenesulfonamide]	246 to 248 °C	84.9 µM	22.4 µM	62.1 µM	19300 nM			
NS(=O)(=O)c1ccc(Nc2ncc3c(n2)CCCC3=O)cc1 [Compound 16a, 4-((5-oxo-5,6,7,8-tetrahydroquinazolin-2-yl)amino)benzenesulfonamide]	294 to 296 °C							
NS(=O)(=O)c1ccc(Nc2ncc3c(n2)CC(c2ccccc2)CC3=O)cc1 (centres unmarked) [Compound 16b, 4-((5-oxo-7-phenyl-5,6,7,8-tetrahydroquinazolin-2-yl)amino)benzenesulfonamide]	214 to 215 °C							
CC1(C)CC(=O)c2cnc(Nc3ccc(S(N)(=O)=O)cc3)nc2C1 [Compound 16c, 4-((5-oxo-7,7-dimethyl-5,6,7,8-tetrahydroquinazolin-2-yl)amino)benzenesulfonamide]	258 to 260 °C							

Reference: PMC8344263, “Tetrahydroquinazole-based secondary sulphonamides as carbonic anhydrase inhibitors: synthesis, biological evaluation against isoforms I, II, IV, and IX, and computational studies” (Journal of Enzyme Inhibition and Medicinal Chemistry, 2021)
